From patent US8901315B2, “Thienopyrazole derivative having PDE7 inhibitory activity” (Daiichi Sankyo Company, Limited, priority 2004, dated 2014)

Tests used:
[1] = target: PDE 7 (phosphodiesterase VII) (Homo sapiens (Human), UniProt Q13946); assay: PDE 7 inhibiting effect (3H-cAMP hydrolysis, PDE 7 active fraction from MOLT-4 cells); format: biochemical; settings: PDE 7 fraction from MOLT-4 cells, 0.064 μM cAMP, 10 μM rolipram, 2 hours at 25° C.; read-out: PDE7 IC50
How it was run: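 PDE7 taken from the soluble fraction of human MOLT-4 T cells (homogenised in pH 7.5 Tris buffer, 100,000×G spin), partially purified on HiTrap Q with a 0–0.8 M NaCl gradient. Inhibition measured as ³H-cAMP hydrolysis, with product separated using Sephadex-QAE in 10 mM HEPES-Na pH 7.0.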

[2] = target: PDE 4 (phosphodiesterase IV); assay: PDE 4 inhibiting effect (3H-cAMP hydrolysis, PDE 4 active fraction from Balb/c mouse liver); format: biochemical; settings: PDE 4 fraction from Balb/c mice liver, 0.064 μM cAMP, 2 hours at 25° C.; read-out: PDE4 IC50
How it was run: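 PDE4 was taken from the soluble liver fraction of male Balb/c mice (12 weeks), purified on DEAE sepharose with a sodium acetate gradient. Inhibition was measured as hydrolysis of 3H-cAMP. The reaction was followed by Sephadex-QAE treatment in HEPES-Na pH 7.0.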

Sequence of PDE 7 (phosphodiesterase VII) (Q13946 whole entry): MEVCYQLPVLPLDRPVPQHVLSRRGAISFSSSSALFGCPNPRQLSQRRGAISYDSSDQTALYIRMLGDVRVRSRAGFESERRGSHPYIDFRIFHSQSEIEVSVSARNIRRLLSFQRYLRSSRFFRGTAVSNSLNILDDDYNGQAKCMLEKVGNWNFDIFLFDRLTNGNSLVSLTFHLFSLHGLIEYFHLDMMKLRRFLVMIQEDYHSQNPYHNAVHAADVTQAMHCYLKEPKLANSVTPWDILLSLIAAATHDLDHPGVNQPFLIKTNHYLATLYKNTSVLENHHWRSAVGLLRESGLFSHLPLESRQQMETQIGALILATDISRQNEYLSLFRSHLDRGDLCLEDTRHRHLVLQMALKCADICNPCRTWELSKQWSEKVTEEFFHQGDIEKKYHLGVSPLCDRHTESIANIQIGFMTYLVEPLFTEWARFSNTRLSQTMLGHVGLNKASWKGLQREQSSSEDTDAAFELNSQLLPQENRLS

For Cc1nn(C2CCCCC2)c2sc(C(=O)Nc3ccc(N4CC[C@@H](O)C4)cc3)cc12 [Example 262, 1-Cyclohexyl-N-{4-[(3R)-3-hydroxypyrrolidinyl]phenyl}-3-methyl-1H-thieno[2,3-c]pyrazole-5-carboxamide], the IC50 [1] was 28 nM and the IC50 [2] was 3.8 µM.
Cc1nn(C2CCCCC2)c2sc(C(=O)Nc3ccc(N4CC[C@@H](O)C4)c(F)c3)cc12 [Example 263, 1-Cyclohexyl-N-{3-fluoro-4-[(3R)-3-hydroxypyrrolidinyl]phenyl}-3-methyl-1H-thieno[2,3-c]pyrazole-5-carboxamide] was tested, and the IC50 [1] was 54 nM and the IC50 [2] was 3.5 µM.
Cc1nn(C2CCCCC2)c2sc(C(=O)Nc3cccc(S(=O)(=O)N4CCC(O)CC4)c3)cc12 [Example 264, 1-Cyclohexyl-N-{3-[(4-hydroxy-1-piperidinyl)sulfonyl]phenyl}-3-methyl-1H-thieno[2,3-c]pyrazole-5-carboxamide] showed an IC50 [1] of 81 nM and an IC50 [2] of 6.3 µM.
Cc1nn(C2CCOCC2)c2sc(C(=O)Nc3ccc(N4CCC(O)CC4)c(F)c3)cc12 [Example 268, N-[3-Fluoro-4-(4-hydroxy-piperidinyl)phenyl]-3-methyl-1-tetrahydro-2H-pyran-4-yl-1H-thieno[2,3-c]pyrazole-5-carboxamide] gave an IC50 [1] of 88 nM and an IC50 [2] of 4.8 µM.
For Cc1nn(C2CCCCC2)c2sc(C(=O)N[C@H]3CC[C@H](N4CCOC4=O)CC3)cc12 [Example 270, 1-Cyclohexyl-3-methyl-N-[trans-4-(2-oxo-1,3-oxazolidin-3-yl)-cyclohexyl]-1H-thieno[2,3-c]pyrazole-5-carboxamide], the IC50 [1] was 15 nM and the IC50 [2] was 1.8 µM.
Work on Cc1nn(C2CCCCC2)c2sc(C(=O)N[C@H]3CC[C@H](N4CCNC4=O)CC3)cc12 [Example 271, 1-Cyclohexyl-3-methyl-N-[trans-4-(2-oxo-1-imidazolidinyl)-cyclohexyl]-1H-thieno[2,3-c]pyrazole-5-carboxamide] yielded an IC50 [1] of 8.9 nM and an IC50 [2] of 2.1 µM.
For Cc1nn(C2CCCCC2)c2sc(C(=O)N[C@H]3CC[C@H](N4C(=O)CCC4=O)CC3)cc12 [Example 273, 1-Cyclohexyl-N-[trans-4-(2,5-dioxo-1-pyrrolidinyl)cyclohexyl]-3-methyl-1H-thieno[2,3-c]pyrazole-5-carboxamide], the IC50 [1] was 14 nM and the IC50 [2] was 1.6 µM.
Work on Cc1nn(C2CCCCC2)c2sc(C(=O)N[C@H]3CC[C@H](N4CCCS4(=O)=O)CC3)cc12 [Example 274, 1-Cyclohexyl-N-[trans-(1,1-dioxide-2-isothiazolidinyl)cyclohexyl]-3-methyl-1H-thieno[2,3-c]pyrazole-5-carboxamide] yielded an IC50 [1] of 9.9 nM and an IC50 [2] of 1.7 µM.
For Cc1nn(C2CCCCC2)c2sc(C(=O)N[C@H]3CC[C@H](NC(=O)N(C)CC(=O)OCc4ccccc4)CC3)cc12 [Example 275, Benzyl [{[(trans-4-{[(1 cyclohexyl-3-methyl-1H-thieno[2,3-c]pyrazol-5-yl)carbonyl]amino}cyclohexyl)amino]carbonyl}(methyl)amino]acetate], the IC50 [1] was 4 nM and the IC50 [2] was 1.2 µM.
For Cc1nn(C2CCCCC2)c2sc(C(=O)NCCN3C(=O)CN(C)C3=O)cc12 [Example 277, 1-Cyclohexyl-3-methyl-N-[2-(3-methyl-2,5-dioxo-1-imidazolidinyl)-ethyl]-1H-thieno[2,3-c]pyrazole-5-carboxamide], the IC50 [1] was 32 nM and the IC50 [2] was 7.8 µM.
Cc1nn(C2CCCCC2)c2sc(C(=O)N[C@H]3CC[C@H](N4CCN(C)C4=O)CC3)cc12 [Example 280] was tested, and the IC50 [1] was 17 nM and the IC50 [2] was 1.9 µM.
Work on Cc1nn(C2CCCCC2)c2sc(C(=O)NCCN3CCN(C)C3=O)cc12 [Example 302, 1-Cyclohexyl-3-methyl-N-[2-(3-methyl-2-oxo-imidazolidinyl)ethyl]-1H-thieno[2,3-c]pyrazole-5-carboxamide] yielded an IC50 [1] of 60 nM and an IC50 [2] of 6.1 µM.
In the case of Cc1nn(C2CCCCC2)c2sc(C(=O)NCCN3C(=O)CNC3=O)cc12 [Example 305, 1-Cyclohexyl-N-[2-(2,5-dioxo-1-imidazolidinyl)ethyl]-3-methyl-1H-thieno[2,3-c]pyrazole-5-carboxamide], the IC50 [1] is reported as 66 nM and the IC50 [2] is reported as 6.8 µM.
